Measured values from patent publication US12479803B2, “Antimalarial compounds” (UNIVERSITY OF CENTRAL FLORIDA RESEARCH FOUNDATION, INC., priority 2019, dated 2025).
Where two headings read alike, the source gives them in different places.

Key:
[1] = tested on: β-hematin crystal formation; assay: β-hematin inhibition experiment; format: biochemical; settings: 100 μM hemin, 16 h at 37° C., up to 200 μM compound
Experimental: CQ and other aminoquinolines are known to fight against the malaria parasites by blocking hematin biocrystallization (hemozoin formation) through π-π stacking between the aminoquinoline scaffold and the heme. As a result, the accumulated toxic heme causes the parasite death by introducing oxidative membrane damage. β-hematin inhibition experiments were performed to determine possible mode of actions of arylvinylquinolines. FIG. 5A is an example according to various embodiments illustrating images of β-hematin crystals after incubation of 100 μM hemin, propionate buffer, phosphatidylcholine and, several concentrations of compound for 16 h at 37° C. […] In FIGS. 5A and 5B, the data are mean±SEM.

[2] = tested on: CQ-resistant (Dd2) strain of P. falciparum; assay: In vitro antiplasmodial activity, SYBR Green I fluorescence assay, Dd2 strain; format: cell-based, Plasmodium falciparum
Experimental: (§1) A set of 104 new styrylquinoline derivatives were synthesized and investigated for in vitro their antimalarial activity. To test antimalarial activities, different dilutions of compounds were added to P. falciparum culture. Following 72 h incubation at 37° C. in an atmosphere containing 5% CO2, the inhibitory property of the compounds were determined by SYBR Green I fluorescence assay. Meanwhile, SARs studies were conducted.
The SAR studies were focused on improving the in vitro activity of 2-arylvinylquinolines against the CQ-resistant Pf Dd2 strain.

[3] = Cytotoxicity assay using MTS in human hepatocytes; format: cell-based; settings: human; Table 6B, unit inferred; footnote IC50 (HepG2); read-out: Cytotoxic activity HepG2 (converted)
[4] = tested on: HepG2; assay: Cytotoxicity assay using MTS in human hepatocytes; format: cell-based; settings: for SI, selectivity index = [IC50 (HepG2)/IC50 (Dd2)]: HepG2 versus Dd2
[5] = tested on: P. falciparum 3D7 strain (CQ-sensitive); assay: In vitro antiplasmodium activity, 3D7 strain; format: cell-based, Plasmodium falciparum
Experimental: as §1

[6] = In vitro microsomal turnover assay (metabolic stability)
Experimental: Selectivity of compounds were determined by cytoxicity assay using MTS [(3-(4,5-dimethylthiazol-2-yl)-5-(3-carboxymethoxyphenyl)-2-(4-sulfophenyl)-2H-tetrazolium) in human hepatocytes. The metabolic stability of compounds was determined in mouse liver microsomes using an NADPH-regenerating system. The aqueous solubility at pH 7.4 was determined by UV-visible absorption based method. The permeability was assessed by the in vitro double-sink parallel artificial membrane permeability assay 52 that is a model for the passive transport from the gastrointestinal tract into the blood stream.
To assess the metabolic stability, the selected compounds were subjected to an in vitro microsomal turnover assay with mouse liver microsomal preparations. This assay determines the percentage of the parent compound residues after 60 min incubation (Table 7).

[7] = target: late stage (IV-V) gametocytes of 3D7 expressing luciferase parasite; assay: In vitro gametocytocidal activity, late stage; format: cell-based, Plasmodium falciparum; settings: late stage gametocytes, means and SEMs of three experiments
Source text: (§2) Late stage (IV-V) gametocytes are more refractory to antimalarial drugs than early-stage gametocytes and blood stage parasites, and thus fewer compounds are effective against late stage Pf gametocytes. […] FIGS. 4A and 4B are an examples according to various embodiments illustrating results showing the activity of compound 24 on gametocyte stages, based on an evaluation of the viability of gametocytes after the exposure of compound 24 on early (A) and late (B) gametocytes stages of 3D7 expressing luciferase parasite. In FIGS. 4A and 4B, EC50 data represent the means and SEMs of three experiments. Therefore, arylvinylquinolines represented good leads as new antimalarials with promising dual stage (blood and gametocyte) activity.

[8] = tested on: tightly synchronized Dd2 parasites; assay: Developmental stage specific action (Giemsa microscopy and flow cytometry); format: cell-based, Plasmodium falciparum; settings: 5×EC50, treated at 6, 18, 30 and 42 h post-invasion
Experimental: Accurate definition of the timing of action of antimalarial agents could give valuable insights into the developmental growth and clinical clearance of the parasite. To further understand the antimalarial activity of arylvinylquinolines, the developmental stage specific action of the most promising compound 24 was determined by both microscopy and flow cytometry analysis. Tightly synchronized cultures were exposed to 5×EC50 concentration of compound 24 at 6, 18, 30 and 42 hours post-invasion (HPI) of the merozoites. Microscopic analysis of Giemsa-stained-thin smears and flow cytometric evaluation were performed at 12 h intervals.
In FIGS. 2A and 2B, the results are representative of three independent biological replicates.

[9] = target: early stage (I-III) gametocytes of 3D7 expressing luciferase parasite; assay: In vitro gametocytocidal activity, early stage; format: cell-based, Plasmodium falciparum
Source text: as §2

[10] = tested on: asynchronous Dd2 parasite cultures; assay: Kill kinetic experiments (rate of killing, parasitocidal/parasitostatic); format: cell-based, Plasmodium falciparum; settings: 5×EC50 (Atovaquone 6.6 nM) for 6, 12, 24 and 48 h
Experimental: To study whether arylvinylquinolines exerted their antiplasmodial activity through a parasitocidal or parasitostatic mechanism, kill kinetic experiments in Dd2 strain were performed. […] After washing to remove the inhibitors at these time points, the growth of the cultures was continued to be assessed for 96 h.
FIGS. 3A, 3B, 3C, and 3D are examples according to various embodiments illustrating rate of killing and parasitocidal/parasitostatic activity determination of arylvinylquinolines. […] After each exposure, cultures were washed three times in RPMI, resuspended in culture media, and monitored for parasite growth daily for 4 days. DHA and Atovaquone (50 nM and 6.6 nM) were included as fast and slow acting controls, respectively. Parasitemia was determined by microscopy of Giemsa stained smear.

[11] = CQ-resistant (Dd2) strain, 72 h incubation, read-out: EC50 (nmol)
[12] = Table 6A, unit not given (text gives nM), footnote calls it IC50, read-out: Antiplasmodium activity Dd2 (converted)
[13] = mouse liver microsomes, 60 min incubation
[14] = Table 6B, unit inferred, footnote IC50 (HepG2), read-out: Cytotoxic activity HepG2 (converted)
[15] = Table 6A, nM, footnote calls it IC50, read-out: Antiplasmodium activity 3D7 (converted)
[16] = Plasmodium falciparum, 3D7, read-out: Early stage IC50 (nM)

Row | Compound | RI, resistance index = [IC50 (Dd2)/IC50 (3D7)] [2] | SI, selectivity index = [IC50 (HepG2)/IC50 (Dd2)] [4] | EC50 [2, 11] | EC50 [2, 12] | IC50 [4] | Projected t1/2 [6] | Clint ([6]; mouse, microsomes) | % remaining after 60 min ([6]; mouse, microsomes, 1 h) | EC50 [5, 15] | also measured
1 | CCN(CC)CCCC(C)Nc1ccnc2cc(Cl)ccc12 (centres unmarked) [CQ, Chloroquine, reference compound] | 9.8 | 60 | – | – | – | – | – | – | – | inhibitory activity towards β-hematin formation [1]: potently inhibited; EC50 ([2]; Plasmodium falciparum, DD2, 72 h, CQ-resistant (Dd2) strain, 72 h incubation): 174 ± 15.5 nM; EC50 ([2]; Plasmodium falciparum, DD2, read-out: Antiplasmodium activity Dd2, Table 6A, unit not given (text gives nM), footnote calls it IC50): 174 ± 15.5 nM; IC50 [3]: 10.4 ± 0.86 µM; EC50 ([5]; Plasmodium falciparum, 3D7, Table 6A, nM, footnote calls it IC50, read-out: Antiplasmodium activity 3D7 (converted)): 17.8 ± 5.5 nM
2 | CN(C)CCNc1cc(/C=C/c2ccccc2F)nc2ccc(Cl)cc12 [Compound 30] | – | 186 | 26 ± 0.9 nM | 26 nM | 4.83 µM | – | – | – | – | EC50 ([2]; Dd2 strain, read-out: EC50): 26 ± 0.9 nM; RI, resistance index = [IC50 (Dd2)/IC50 (3D7)] ([2]; Dd2 versus 3D7): 0.5; EC50 ([5]; 3D7 strain, read-out: EC50): 55.9 ± 9.5 nM
3 | CN(C)CCNc1cc(/C=C/c2cccc(F)c2)nc2ccc(Cl)cc12 [Compound 31] | – | 810 | 5.9 ± 1.4 nM | 5.9 nM | 4.78 µM | 43.2 min | 32.1 µL/min/mg | 38.2% | – | RI, resistance index = [IC50 (Dd2)/IC50 (3D7)] ([2]; Dd2 versus 3D7): 0.3; EC50 ([5]; 3D7 strain, read-out: EC50): 23 ± 2.8 nM
4 | CN(C)CCNc1cc(/C=C/c2ccncc2)nc2ccc(Cl)cc12 [Compound 50] | 0.6 0.6 0.5 0.3 0.5 | 212 | 28.8 ± 5 nM | 28.8 nM | – | – | – | – | – | Clint ([6]; mouse liver microsomes): 62.2 µL/min/mg; Projected t1/2 ([6]; mouse liver microsomes (MLM)): 22.3 min; % remaining after 60 min [6, 13]: 15.5%; EC50 ([2]; Dd2 strain, read-out: EC50): 28.8 ± 5 nM; IC50 [4, 14]: 6.11 µM; EC50 ([5]; read-out: Antiplasmodium activity 3D7 (converted)): 56.6 nM
5 | Fc1ccc(/C=C/c2cc(NCc3ccccn3)c3cc(Cl)ccc3n2)cc1 [Compound 72] | 0.6 | 127 | 156 ± 34.5 nM | 156 ± 34.5 nM | 19.8 ± 3.27 µM | 65.3 min | 21.2 µL/min/mg | 52.9% | 248 ± 35.1 nM | EC50 ([2]; Dd2 strain, read-out: EC50): 156 ± 34.5 nM
6 | Fc1ccc(/C=C/c2cc(NCCN3CCOCC3)c3cc(Cl)ccc3n2)cc1 [Compound 81] | 0.6 | 711 | 24.2 ± 0.8 nM | 24.2 ± 0.8 nM | 17.2 ± 3.3 µM | – | – | – | 41.8 ± 12.7 nM | –
7 | CN1CCN(CCNc2cc(/C=C/c3ccc(F)cc3)nc3ccc(Cl)cc23)CC1 [Compound 86] | 1 | 209 | 15.3 ± 3.4 nM | 15.3 ± 3.4 nM | 3.2 ± 0.491 µM | 60.3 min | 23.0 µL/min/mg | 50.2% | 15.7 ± 2.9 nM | IC50 [7]: 2.5 ± 0.424 µM; stage-specific inhibition of P. falciparum growth [8]: stage-specific action at the trophozoite phase; IC50 ([9]; early stage gametocytes, means and SEMs of three experiments, read-out: Early stage IC50): 910 ± 314 nM; rate of killing (parasitemia after exposure and wash-out) [10]: remarkable reduction in parasitemias; inhibitory activity towards β-hematin formation [1]: much weaker than that of CQ
8 | Fc1ccc(/C=C/c2cc(NCCCCN3CCOCC3)c3cc(Cl)ccc3n2)cc1 [Compound 92] | – | 1478 | 2.4 ± 1.1 nM | 2.4 ± 1.1 nM | 3.55 ± 0.384 µM | 22.2 min | 62.4 µL/min/mg | 15.4% | 6.9 ± 1.3 nM | –
9 | Clc1ccc2nc(/C=C/c3ccncc3)cc(NCCCCN3CCOCC3)c2c1 [Compound 93] | – | 561 | 9.9 ± 1.3 nM | 9.9 nM | 5.67 µM | 14.4 min | 96.2 µL/min/mg | 5.62% | 20.8 nM | EC50 ([2]; Dd2 strain, read-out: EC50): 9.9 ± 1.3 nM
10 | CN1CCN(CCCCNc2cc(/C=C/c3ccncc3)nc3ccc(Cl)cc23)CC1 [Compound 96] | 0.9 | 251 | 33.4 ± 5.4 nM | 33.4 ± 5.4 nM | 8.38 ± 2.58 µM | – | – | – | 36.1 ± 11.3 nM | –
11 | FC(F)(F)c1ccc(/C=C/c2cc(NCCCCN3CCOCC3)c3cc(Cl)ccc3n2)cc1 [Compound 98] | – | 332 | 30.7 ± 5.2 nM | 30.7 ± 5.2 nM | 10.2 ± 2.39 µM | 64.9 min | 21.4 µL/min/mg | 52.7% | 73.8 ± 9.7 nM | –
12 | Fc1ccc(/C=C/c2cc(NCCCCN3CCOCC3)c3cc(Cl)ccc3n2)cc1F [Compound 105] | – | 241 | 25.5 ± 6.1 nM | 25.5 nM | – | – | – | – | 27.6 nM | Clint ([6]; mouse liver microsomes): 53.7 µL/min/mg; Projected t1/2 ([6]; mouse liver microsomes (MLM)): 25.8 min; % remaining after 60 min [6, 13]: 19.9%; IC50 [4, 14]: 6.14 µM
13 | Clc1ccc2nc(-c3ccncc3)cc(NCCCCN3CCOCC3)c2c1 [Compound 120] | – | – | 796 ± 161 nM | – | – | – | – | – | – | –
14 | C[C@H]1[C@@H](O)O[C@@H]2O[C@@]3(C)CC[C@H]4[C@H](C)CC[C@@H]1[C@@]24OO3 [DHA, dihydroartemisinin, reference compound] | – | – | – | – | – | – | – | – | – | IC50 ([7]; Plasmodium falciparum, 3D7): 0.0374 ± 0.0089 µM; IC50 [9, 16]: 17.4 ± 3.7 nM
15 | CN(C)c1ccc2nc3ccc(=[N+](C)C)cc-3sc2c1 [Methylene blue, reference compound] | – | – | – | – | – | – | – | – | – | IC50 ([7]; Plasmodium falciparum, 3D7): 0.107 ± 0.0463 µM; IC50 [9, 16]: 74.7 ± 21.9 nM
